Results reported in US20210317505A1, “IMPROVED DETECTION OF ANTICOAGULANTS IN BODY FLUIDS” (DOASENSE GmbH, priority 2017, published 2021).
Where “and” joins values, the source holds several entries; their conditions need not be identical. Equal entries are not always repeated. Where two headings read alike, the source gives them in different places.

Target: factor Xa (Homo sapiens, UniProt P00742)
Settings: for difference in reflectance units for the minimum and maximum concentration: 0 ng/mL vs. 1500 ng/mL, native urine; for intensity, mean, Laura Smart No. 1 / intensity, mean, Laura Smart No. 2 / intensity, mean, Laura Smart No. 3 / intensity, mean, all readers / intensity, single, Laura Smart No. 1 / intensity, single, Laura Smart No. 2 / intensity, single, Laura Smart No. 3: 380 nm
Source text: Using a modified reflectance photometer, hereinafter also referred to as reader (Laura Smart (LS), ERBA Lachema), native urine samples were investigated using excitation light having either a wavelength of 380 nm or a wavelength of 470 nm. Herein, the samples under investigation contained the direct factor Xa inhibitor rivaroxaban or the direct thrombin inhibitor dabigatran. For each anticoagulant, samples with different concentrations were provided.
Test strips were used on which both the blood clotting factor (factor Xa or thrombin) and the respective chromogenic substrate conjugated to a detectable substance were immobilized, i.e. N-benzoyl-L-isoleucyl-L-glutamyl-L-glycyl-L-arginine-para-nitroaniline (SEQ ID NO:1) together with factor Xa, and N-(para-tosyl)-glycyl-L-prolyl-L-arginine-para-nitroanilide acetate together with thrombin. After dipping the test strip into the urine sample to be investigated for 2 to 3 seconds, incubation was allowed for 10 min. Then, the test strip was inserted into the reader. In total, three different readers (“Laura No. 1”, “Laura No. 2”, and “Laura No. 3”) were used in order to check for any device-specific issues.
In order to suppress fluorescence light which might originate from the released detestable substance (para-nitroaniline), a UV band-pass filter was used made of UG11 glass (Schott AG).
For each single measurement, an intensity value was put out by the respective reader, given in reflectance units (% REM). Each of the readers was able to split up the measured intensity into 1000 increments.
Generally, the higher the concentration of the anticoagulant in the sample, the less detectable substance is released from the chromogenic substrate by the corresponding blood dotting factor. Accordingly, in case of a high concentration of the anticoagulant, the absorption by the sample is low while the reflectance by the sample is high. In order to reliably evaluate the presence or absence of the anticoagulant in the sample, as a general rule, a low concentration of the anticoagulant in the sample should result in a % REM value as low as possible, while a high concentration of the anticoagulant in the sample should result in a % REM value as high as possible. In other words, the difference in reflectance units for the minimum and maximum concentration of the anticoagulant should be as large as possible.

[1] = rivaroxaban 100 ng/mL in native urine
[2] = rivaroxaban 200 ng/mL in native urine
[3] = rivaroxaban 400 ng/mL in native urine
[4] = rivaroxaban 1500 ng/mL in native urine

Chain of factor Xa (P00742 235-488 limits assumed): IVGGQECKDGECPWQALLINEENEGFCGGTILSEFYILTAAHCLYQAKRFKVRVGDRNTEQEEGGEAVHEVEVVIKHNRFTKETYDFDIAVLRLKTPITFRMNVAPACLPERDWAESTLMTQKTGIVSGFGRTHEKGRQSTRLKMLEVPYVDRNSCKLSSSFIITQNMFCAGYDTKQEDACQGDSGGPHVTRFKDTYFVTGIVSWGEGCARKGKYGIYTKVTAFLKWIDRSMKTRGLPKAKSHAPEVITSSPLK
Chain of factor Xa (P00742 41-179 partner limits assumed): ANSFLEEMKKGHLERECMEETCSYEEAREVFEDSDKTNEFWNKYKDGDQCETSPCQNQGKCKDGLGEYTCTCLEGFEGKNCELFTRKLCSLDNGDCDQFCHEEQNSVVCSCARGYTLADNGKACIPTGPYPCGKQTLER

O=C(NC[C@H]1CN(c2ccc(N3CCOCC3=O)cc2)C(=O)O1)c1ccc(Cl)s1 [rivaroxaban]
difference in reflectance units for the minimum and maximum concentration (excitation light 380 nm): about 400 % REM
difference in reflectance units for the minimum and maximum concentration (excitation light 470 nm): about 200 % REM
change of the measured intensity with concentration (dark urine samples, excitation light 380 nm): possible to observe a change of the measured intensity with the concentration
intensity, mean, Laura Smart No. 1 [1]: 181 % REM
intensity, mean, Laura Smart No. 2 [1]: 194 % REM
intensity, mean, Laura Smart No. 3 [1]: 199 % REM
intensity, mean, all readers [1]: 191 % REM
intensity, single, Laura Smart No. 1 [1]: 192 % REM and 159 % REM and 193 % REM
intensity, single, Laura Smart No. 2 [1]: 194 % REM and 191 % REM and 196 % REM
intensity, single, Laura Smart No. 3 [1]: 202 % REM and 196 % REM and 199 % REM
intensity, mean, Laura Smart No. 1 [2]: 276 % REM
intensity, mean, Laura Smart No. 2 [2]: 266 % REM
intensity, mean, Laura Smart No. 3 [2]: 315 % REM
intensity, mean, all readers [2]: 286 % REM
intensity, single, Laura Smart No. 1 [2]: 254 % REM and 336 % REM and 238 % REM
intensity, single, Laura Smart No. 2 [2]: 279 % REM and 265 % REM and 253 % REM
intensity, single, Laura Smart No. 3 [2]: 304 % REM and 342 % REM and 299 % REM
intensity, mean, Laura Smart No. 1 [3]: 387 % REM
intensity, mean, Laura Smart No. 2 [3]: 425 % REM
intensity, mean, Laura Smart No. 3 [3]: 387 % REM
intensity, mean, all readers [3]: 400 % REM
intensity, single, Laura Smart No. 1 [3]: 346 % REM and 406 % REM and 409 % REM
intensity, single, Laura Smart No. 2 [3]: 431 % REM and 413 % REM
intensity, single, Laura Smart No. 3 [3]: 423 % REM and 411 % REM and 326 % REM
intensity, mean, Laura Smart No. 1 [4]: 542 % REM
intensity, mean, Laura Smart No. 2 [4]: 518 % REM
intensity, mean, Laura Smart No. 3 [4]: 496 % REM
intensity, mean, all readers [4]: 519 % REM
intensity, single, Laura Smart No. 1 [4]: 537 % REM and 528 % REM and 560 % REM
intensity, single, Laura Smart No. 2 [4]: 588 % REM and 468 % REM and 499 % REM
intensity, single, Laura Smart No. 3 [4]: 501 % REM and 510 % REM and 476 % REM
